Laboratory results reported in patent US4968705A, “Benzopyrrolidinone compounds as bronchospastic agents” (Adir et Cie, priority 1988, dated 1990).
Like-named read-outs stand apart in the source and are kept apart here.

What was measured:
mice's ear edema = assay: Mice's ear edema (technique of Young et al.); type: in vivo; settings: for decrease of the mice's ear edema: per os, 36 micromole/kg
Method: The compounds of the present invention were also tested on the mice's ear edema according to the technique of John M. YOUNG et al., Journal of […], 82, 363-371 (1984). Administrated, per os, at a dose of 36 micromole/kg, the derivatives of the present invention provoke a decrease of the mice's ear edema of from 15 to 50% according to the compounds.

Toxicity LD50 in mouse = type: in vivo; settings: in vivo
Excerpt: (§1) The compounds of the invention and the prior art product fenspiride of the prior art used as reference substance were subjected to various tests described in ARZNEIMITTEL-FORSCHUNG/DRUG RESEARCH 37 (II), 12, 1354-1355 (1987), especially

[1] = test system: histamine-induced bronchoconstriction; assay: Armitage test: histamine-induced bronchoconstriction test in guinea pigs; type: in vivo; settings: guinea pig p.o.
Excerpt: as §1
the histamine-induced bronchoconstriction test in guinea pigs, […]

[2] = target: purified phosphodiesterase; assay: In vitro inhibition of purified phosphodiesterase; type: biochemical
Excerpt: as §1
to assays in vitro on the inhibition of purified phosphodiesterase.

[3] = test system: experimental asthma induced in guinea pigs by antigen aerosols; assay: Passive shock in guinea pigs (experimental asthma induced by antigen aerosols); type: in vivo; settings: Cavia porcellus, read-out: Passive shock guinea pig ED50
Excerpt: to the determination of the passive shock resulting from the study of experimental asthma induced in guinea pigs by antigen aerosols and […]

mouse = assay: Toxicity LD50 in mouse; type: in vivo; settings: PO
Excerpt: as §1

[4] = Cavia porcellus, po, dose 1 mg/kg, read-out: Armitage test % protection
[5] = basal, read-out: Phosphodiesterase inhibition IC50 basal (converted)
[6] = +calmoduline, read-out: Phosphodiesterase inhibition IC50 +calmoduline (converted)
[7] = Cavia porcellus, po, read-out: Armitage test % protection

## O=c1[nH]c2ccccc2n1CCN1CCC(OC(c2ccccc2)c2ccccc2)CC1 [1[(2-oxo-3-benzimidazolinyl-ethyl]-4-benzhydryloxy-piperidine]
mice's ear edema
  decrease of the mice's ear edema: lower than 15%

## O=C1Cc2ccccc2N1CCN1CCC(OC(c2ccccc2)c2ccccc2)CC1 [Example 1, 1-(4-benzhydryloxypiperidinoethyl)oxindole]
Toxicity LD50 in mouse; IP
  LD50: ~200 mg/kg
[1]; [4]
  inhibition in vivo at 1 mg/kg: 66%
[2]; basal
  Phosphodiesterase inhibition IC50 basal: inactif
[3]; ip
  ED50: 2.5 mg/kg
[3]; po
  ED50: 5 mg/kg

## O=C1c2ccccc2CN1CCN1CCC(OC(c2ccccc2)c2ccccc2)CC1 [Example 2, 2-(4-benzhydryloxypiperidinoethyl)isoxindole]
Toxicity LD50 in mouse; PO
  LD50: > 800 mg/kg
[1]; [4]
  inhibition in vivo at 1 mg/kg: 36%
[2]; [5]
  IC50: > 100 µM
[3]; guinea pig, PO
  ED50: 2.5 to 5 mg/kg

## O=C1Cc2ccccc2N1CCN1CCC(OC(c2ccc(F)cc2)c2ccc(F)cc2)CC1 [Example 3, 1-(4-bis-para-fluorobenzhydryloxypiperidinoethyl)oxindole]
Toxicity LD50 in mouse; PO
  LD50: < 800 mg/kg
[1]; [4]
  inhibition in vivo at 1 mg/kg: 47.6%
[2]; basal
  Phosphodiesterase inhibition IC50 basal: inactif

## O=C1Cc2ccccc2N1CCCN1CCC(C(c2ccc(F)cc2)c2ccc(F)cc2)CC1 [Example 4, 1-(4-bis-para-fluorobenzhydrylpiperidinopropyl)-oxindole]
Toxicity LD50 in mouse; IP
  LD50: ~200 mg/kg
[1]; Cavia porcellus, po, dose 20 mg/kg, read-out: Armitage test % protection
  inhibition in vivo at 20 mg/kg: 59.4%
[3]; guinea pig, IP
  ED50: 40 mg/kg

## O=C1Cc2ccccc2N1CCCN1CCC(OC(c2ccccc2)c2ccccc2)CC1 [Example 5, 1-(4-benzhydryloxypiperidinopropyl)-oxindole]
[1]; [4]
  inhibition in vivo at 1 mg/kg: 72.1%
[2]; [6]
  IC50: 100 µM
[2]; [5]
  IC50: > 100 µM

## O=C1Cc2cccc(F)c2N1CCN1CCC(OC(c2ccccc2)c2ccccc2)CC1 [Example 6, 1-(4-benzhydryloxypiperidinoethyl)-7-fluoro-oxindole]
[1]; [4]
  inhibition in vivo at 1 mg/kg: 36.6%
[2]; basal
  Phosphodiesterase inhibition IC50 basal: inactif

## O=C1Cc2ccccc2N1CCN1CCC(OC(c2ccc(F)cc2)c2ccc(F)cc2)CC1 [Example 7, 1-(4-bis-para-fluorobenzhydryloxypiperidinoethyl)oxindole]
mouse
  Toxicity LD50: < 800 mg/kg
[1]; dose 1 mg/kg
  Armitage test % protection: +50%
[2]; basal
  Phosphodiesterase inhibition IC50 basal: inactif
[3]; po
  ED50: 2.5 to 5 mg/kg

## O=C1Cc2cc(F)ccc2N1CCN1CCC(OC(c2ccccc2)c2ccccc2)CC1 [Example 8, 1-(4-benzhydryloxypiperidinoethyl)-5-fluoro-oxindole]
[1]; [4]
  inhibition in vivo at 1 mg/kg: 72%
[2]; [5]
  IC50: > 10 µM
[3]; po
  ED50: 2.5 to 5 mg/kg

## O=C1Cc2ccccc2N1CCN1CCC(SC(c2ccccc2)c2ccccc2)CC1 [Example 9, 1-(4-benzhydrylthiopiperidinoethyl)-oxindole]
[1]; [7]
  inhibition in vivo at 5 mg/kg: 60%

## O=C1Cc2ccccc2N1CCN1CCC(C(c2ccc(F)cc2)c2ccc(F)cc2)CC1 [Example 10, 1-(4-bis-para-fluorobenzhydrylpiperidinoethyl)oxindole]
Toxicity LD50 in mouse; PO
  LD50: < 800 mg/kg
[1]; [7]
  inhibition in vivo at 5 mg/kg: 78%
[2]; [6]
  IC50: 100 µM
[2]; [5]
  IC50: > 100 µM

## COc1cc2c(cc1OC)C(=O)N(CCCN1CCC(OC(c3ccccc3)c3ccccc3)CC1)C2 [Example 12, 2-(4-benzhydryloxypiperidinopropyl)-5,6-dimethoxyisoxindole]
Toxicity LD50 in mouse; PO
  LD50: 800 mg/kg
[1]; [7]
  inhibition in vivo at 5 mg/kg: 79%
[2]; [6]
  IC50: 20 µM
[2]; [5]
  IC50: 70 µM
[3]; guinea pig, PO
  ED50: 20 mg/kg

## CC1(C)C(=O)N(CCN2CCC(OC(c3ccccc3)c3ccccc3)CC2)c2ccccc21 [Example 14, 1-(4-benzhydryloxypiperidinoethyl)-3,3-dimethyloxindole]
Toxicity LD50 in mouse; PO
  LD50: > 800 mg/kg
[1]; [7]
  inhibition in vivo at 5 mg/kg: 70%
[2]; [6]
  IC50: 20 µM
[2]; [5]
  IC50: 30 µM
[3]; guinea pig, PO
  ED50: > 40 mg/kg

## CC(C)C1C(=O)N(CCN2CCC(OC(c3ccccc3)c3ccccc3)CC2)c2ccccc21 (stereo not drawn) [Example 15, 1-(4-benzhydryloxypiperidinoethyl)-3-isopropyloxindole]
Toxicity LD50 in mouse; PO
  LD50: > 800 mg/kg
[1]; [7]
  inhibition in vivo at 5 mg/kg: 50%
[2]; [6]
  IC50: 30 µM
[2]; [5]
  IC50: 100 µM
[3]; guinea pig, PO
  ED50: 5 mg/kg

## O=C1c2ccccc2CN1CCCN1CCC(OC(c2ccccc2)c2ccccc2)CC1 [Example 16, 2-(4-benzhydryloxypiperidinopropyl)-isoxindole]
Toxicity LD50 in mouse; PO
  LD50: > 800 mg/kg
[1]; [7]
  inhibition in vivo at 5 mg/kg: 82%
[2]; [6]
  IC50: 30 µM
[2]; [5]
  IC50: > 100 µM
[3]; guinea pig, PO
  ED50: 5 mg/kg

## O=C1Cc2cc(F)ccc2N1CCCN1CCC(OC(c2ccccc2)c2ccccc2)CC1 [Example 17, 1-(4-benzhydryloxypiperidinopropyl)-5-fluoro-oxindole]
Toxicity LD50 in mouse; PO
  LD50: > 800 mg/kg
[1]; [7]
  inhibition in vivo at 5 mg/kg: 75%
[2]; [6]
  IC50: 10 µM
[2]; [5]
  IC50: > 100 µM
[3]; guinea pig, PO
  ED50: 40 mg/kg

## O=C1c2ccc(F)cc2CN1CCN1CCC(OC(c2ccccc2)c2ccccc2)CC1 [Example 18, 2-(4-benzhydryloxypiperidinoethyl)-5-fluoro-isoxindole]
Toxicity LD50 in mouse; PO
  LD50: > 800 mg/kg
[1]; [7]
  inhibition in vivo at 5 mg/kg: 68%
[2]; [6]
  IC50: 20 µM
[2]; [5]
  IC50: 100 µM
[3]; guinea pig, PO
  ED50: 40 mg/kg

## O=C1c2ccc(F)cc2CN1CCCN1CCC(OC(c2ccccc2)c2ccccc2)CC1 [Example 19, 2-(4-benzhydryloxypiperidinopropyl)-5-fluoro-isoxindole]
Toxicity LD50 in mouse; PO
  LD50: > 800 mg/kg
[1]; [7]
  inhibition in vivo at 5 mg/kg: 68%
[2]; [6]
  IC50: 20 µM
[2]; [5]
  IC50: > 100 µM
[3]; guinea pig, PO
  ED50: 10 mg/kg

## O=C1c2cc(F)ccc2CN1CCN1CCC(OC(c2ccccc2)c2ccccc2)CC1 [Example 20, 2-(4-benzhydryloxypiperidinoethyl)-6-fluoro-isoxindole]
Toxicity LD50 in mouse; PO
  LD50: > 800 mg/kg
[1]; [7]
  inhibition in vivo at 5 mg/kg: 43%
[2]; [6]
  IC50: 20 µM
[2]; [5]
  IC50: > 100 µM
[3]; guinea pig, PO
  ED50: 40 mg/kg

## O=C1NCC2(CCN(CCc3ccccc3)CC2)O1 [Fenspiride, reference compound]
Toxicity LD50 in mouse; PO
  LD50: > 800 mg/kg
mice's ear edema; same conditions and same dose (per os, 36 micromole/kg)
  activity on mice's ear edema (in words): no activity
[1]; Cavia porcellus, po, dose 2,5 mg/kg, read-out: Armitage test % protection
  inhibition in vivo at 2.5 mg/kg: 69%
[2]; [6]
  IC50: > 100 µM
[2]; [5]
  IC50: > 100 µM
[3]; guinea pig, IP
  ED50: 5 mg/kg
[3]; guinea pig, PO
  ED50: 10 mg/kg

## O=c1[nH]c2ccccc2n1CCCN1CCN(C(c2ccccc2)c2ccccc2)CC1 [oxatomide]
mice's ear edema
  decrease of the mice's ear edema: lower than 15%
